The source of these data is the OligoGym collection.

HELM strings list units from the 5' end as sugar, base in round brackets, then linkage (d deoxyribose, r ribose, m 2'-O-methyl, p phosphodiester). Strings are as the collection lists them; they lack the last nucleoside at the 3' end of the tested compound. [moe] = 2'-O-(2-methoxyethyl) (MOE); [sp] = phosphorothioate linkage; [m5C] = 5-methylcytosine

The data set has as its target UBE3A-ATS. Kind of data set: mouse, dose not given. The conditions noted are these: ASO.

In turn, “RNA1{[moe](T)[sp].[moe](G)p.[moe](G)p.[moe](T)p.d([m5C])[sp].d(A)[sp].d(T)[sp].d([m5C])[sp].d(T)[sp].d([m5C])[sp].d(G)[sp].d(G)[sp].d(G)[sp].d(T)[sp].[moe](A)p.[moe](T)p.[moe](A)p.[moe](T)[sp].[moe](A)}$$$$ (last 3' nucleoside missing)” gave a 3 h FOB score of 4 score 0-7.

As for “RNA1{[moe](A)[sp].[moe]([m5C])p.[moe](T)p.[moe](G)p.[moe](T)p.d(T)[sp].d(A)[sp].d([m5C])[sp].d([m5C])[sp].d(A)[sp].d(A)[sp].d(G)[sp].d(A)[sp].d([m5C])[sp].d(T)[sp].[moe](T)p.[moe]([m5C])p.[moe](A)[sp].[moe](G)}$$$$ (last 3' nucleoside missing)”, the 3 h FOB score turned out to be 3.8 score 0-7.

“RNA1{[moe](T)[sp].[moe](T)p.[moe](T)p.[moe](G)p.[moe](G)p.d(T)[sp].d(A)[sp].d(T)[sp].d(T)[sp].d(G)[sp].d(A)[sp].d([m5C])[sp].d(A)[sp].d([m5C])[sp].d([m5C])[sp].[moe](T)p.[moe]([m5C])p.[moe]([m5C])[sp].[moe](A)}$$$$ (last 3' nucleoside missing)” had a 3 h FOB score of 3.7 score 0-7.

In turn, “RNA1{[moe]([m5C])[sp].[moe](A)p.[moe](G)p.[moe](T)p.[moe](T)p.d(T)[sp].d(T)[sp].d([m5C])[sp].d(G)[sp].d([m5C])[sp].d([m5C])[sp].d([m5C])[sp].d(G)[sp].d(T)[sp].d(T)[sp].[moe](A)p.[moe]([m5C])p.[moe]([m5C])[sp].[moe](T)}$$$$ (last 3' nucleoside missing)” came in with a 3 h FOB score of 5 score 0-7.

As to “RNA1{[moe](T)[sp].[moe](G)p.[moe](A)p.[moe](G)[sp].d([m5C])[sp].d(T)[sp].d(A)[sp].d(T)[sp].d([m5C])[sp].d(T)[sp].d(G)[sp].d(T)[sp].[moe](A)p.[moe]([m5C])p.[moe](A)p.[moe](A)[sp].[moe](A)}$$$$ (last 3' nucleoside missing)”, the 3 h FOB score was found to be 3 score 0-7.

In turn, “RNA1{[moe](G)[sp].[moe](A)p.[moe](T)p.[moe](T)p.[moe](G)p.d(A)[sp].d([m5C])[sp].d(T)[sp].d(A)[sp].d([m5C])[sp].d(T)[sp].d(T)[sp].d([m5C])[sp].d(A)[sp].d(A)[sp].[moe]([m5C])p.[moe]([m5C])p.[moe](T)[sp].[moe](G)}$$$$ (last 3' nucleoside missing)” yielded a 3 h FOB score of 1.3 score 0-7.

For “RNA1{[moe](G)[sp].[moe](T)p.[moe](A)p.[moe](G)p.[moe](A)p.d(T)[sp].d(A)[sp].d(A)[sp].d([m5C])[sp].d(T)[sp].d(T)[sp].d(T)[sp].d(A)[sp].d([m5C])[sp].d([m5C])[sp].[moe](T)p.[moe](T)p.[moe](G)[sp].[moe](A)}$$$$ (last 3' nucleoside missing)”, the 3 h FOB score amounted to 0 score 0-7.

For the substance “RNA1{[moe](T)[sp].[moe](G)p.[moe]([m5C])p.[moe](A)[sp].d(T)[sp].d(A)[sp].d([m5C])[sp].d([m5C])[sp].d([m5C])[sp].d(A)[sp].d(G)[sp].d(G)[sp].[moe](G)p.[moe](T)p.[moe](A)p.[moe](G)[sp].[moe](G)}$$$$ (last 3' nucleoside missing)”, the 3 h FOB score stood at 0 score 0-7.

The substance “RNA1{[moe](G)[sp].[moe](G)p.[moe](T)p.[moe]([m5C])[sp].d(A)[sp].d(T)[sp].d([m5C])[sp].d(T)[sp].d([m5C])[sp].d(G)[sp].d(G)[sp].d(G)[sp].[moe](T)p.[moe](A)p.[moe](T)p.[moe](A)[sp].[moe](T)}$$$$ (last 3' nucleoside missing)” registered a 3 h FOB score of 6.3 score 0-7.

In turn, “RNA1{[moe](T)[sp].[moe](T)p.[moe](G)p.[moe](A)p.[moe](T)p.d([m5C])[sp].d(T)[sp].d(A)[sp].d(T)[sp].d(T)[sp].d(A)[sp].d(T)[sp].d(G)[sp].d(A)[sp].d(G)[sp].[moe](G)p.[moe](G)p.[moe]([m5C])[sp].[moe](A)}$$$$ (last 3' nucleoside missing)” came in with a 3 h FOB score of 4.7 score 0-7.

Regarding “RNA1{[moe](G)[sp].[moe](T)p.[moe]([m5C])p.[moe](A)p.[moe](T)[sp].d([m5C])[sp].d(T)[sp].d([m5C])[sp].d(G)[sp].d(G)[sp].d(G)[sp].d(T)[sp].d(A)[sp].[moe](T)p.[moe](A)p.[moe](T)[sp].[moe](A)}$$$$ (last 3' nucleoside missing)”, the 3 h FOB score was found to be 4.3 score 0-7.

For the substance “RNA1{[moe](G)[sp].[moe](T)p.[moe](G)p.[moe](A)p.[moe](G)[sp].d([m5C])[sp].d(T)[sp].d(A)[sp].d(T)[sp].d([m5C])[sp].d(T)[sp].d(G)[sp].d(T)[sp].[moe](A)p.[moe]([m5C])p.[moe](A)[sp].[moe](A)}$$$$ (last 3' nucleoside missing)”, the 3 h FOB score is 1 score 0-7.

Consider “RNA1{[moe](G)[sp].[moe](A)p.[moe](A)p.[moe](A)p.[moe]([m5C])p.d([m5C])[sp].d(A)[sp].d(G)[sp].d([m5C])[sp].d([m5C])[sp].d(A)[sp].d(G)[sp].d(G)[sp].d(T)[sp].d(G)[sp].[moe](T)p.[moe]([m5C])p.[moe](T)[sp].[moe](T)}$$$$ (last 3' nucleoside missing)”, for which the 3 h FOB score worked out at 3 score 0-7.

Take “RNA1{[moe](G)[sp].[moe]([m5C])p.[moe](A)p.[moe]([m5C])p.[moe](A)p.d([m5C])[sp].d([m5C])[sp].d(T)[sp].d(G)[sp].d(G)[sp].d(A)[sp].d(T)[sp].d(T)[sp].d(T)[sp].d([m5C])[sp].[moe](A)p.[moe]([m5C])p.[moe](T)[sp].[moe](A)}$$$$ (last 3' nucleoside missing)”: the 3 h FOB score turned out to be 2 score 0-7.

For “RNA1{[moe](T)[sp].[moe]([m5C])p.[moe](T)p.[moe](G)p.[moe]([m5C])p.d(T)[sp].d(A)[sp].d(T)[sp].d(T)[sp].d(G)[sp].d(T)[sp].d(T)[sp].d(G)[sp].d(G)[sp].d(A)[sp].[moe](T)p.[moe](A)p.[moe](T)[sp].[moe]([m5C])}$$$$ (last 3' nucleoside missing)”, the 3 h FOB score was 6.5 score 0-7.

In turn, “RNA1{[moe](T)[sp].[moe](T)p.[moe](T)p.[moe](T)p.d(T)[sp].d([m5C])[sp].d([m5C])[sp].d(A)[sp].d(T)[sp].d(T)[sp].d(T)[sp].d(T)[sp].d(T)[sp].d([m5C])[sp].[moe](T)p.[moe]([m5C])p.[moe](T)p.[moe](T)[sp].[moe](A)}$$$$ (last 3' nucleoside missing)” yielded a 3 h FOB score of 1 score 0-7.

The substance “RNA1{[moe](G)[sp].[moe](G)p.[moe](G)p.[moe](T)p.[moe](T)p.d(A)[sp].d([m5C])[sp].d(T)[sp].d(T)[sp].d(T)[sp].d([m5C])[sp].d([m5C])[sp].d(A)[sp].d(A)[sp].d(T)[sp].[moe](A)p.[moe](G)p.[moe](A)[sp].[moe](G)}$$$$ (last 3' nucleoside missing)” registered a 3 h FOB score of 1.5 score 0-7.

In the case of “RNA1{[moe](G)[sp].[moe](T)p.[moe](G)p.[moe]([m5C])[sp].d(A)[sp].d(T)[sp].d(A)[sp].d([m5C])[sp].d([m5C])[sp].d([m5C])[sp].d(A)[sp].d(G)[sp].[moe](G)p.[moe](G)p.[moe](T)p.[moe](A)[sp].[moe](G)}$$$$ (last 3' nucleoside missing)”, the 3 h FOB score came to 1 score 0-7.

In turn, “RNA1{[moe](G)[sp].[moe](G)p.[moe](T)p.[moe](T)p.[moe](T)p.d(A)[sp].d(G)[sp].d(T)[sp].d(G)[sp].d(T)[sp].d([m5C])[sp].d(A)[sp].d(T)[sp].d(A)[sp].d(T)[sp].[moe](G)p.[moe](T)p.[moe](A)[sp].[moe](G)}$$$$ (last 3' nucleoside missing)” had a 3 h FOB score of 5.5 score 0-7.

“RNA1{[moe](G)[sp].[moe](T)p.[moe](A)p.[moe](T)p.[moe](G)p.d(G)[sp].d(T)[sp].d(A)[sp].d(T)[sp].d([m5C])[sp].d(T)[sp].d(T)[sp].d(G)[sp].d([m5C])[sp].d(A)[sp].[moe](G)p.[moe](T)p.[moe](A)[sp].[moe](G)}$$$$ (last 3' nucleoside missing)” displayed a 3 h FOB score of 5.2 score 0-7.

In turn, “RNA1{[moe](G)[sp].[moe](A)p.[moe](T)p.[moe]([m5C])[sp].d(A)[sp].d([m5C])[sp].d(A)[sp].d(T)[sp].d(T)[sp].d(A)[sp].d([m5C])[sp].d([m5C])[sp].[moe]([m5C])p.[moe](A)p.[moe](T)p.[moe]([m5C])[sp].[moe]([m5C])}$$$$ (last 3' nucleoside missing)” gave a 3 h FOB score of 0 score 0-7.

Turning to “RNA1{[moe](A)[sp].[moe](T)p.[moe](G)p.[moe](T)p.[moe](A)p.d(T)[sp].d([m5C])[sp].d(A)[sp].d(G)[sp].d(G)[sp].d([m5C])[sp].d(A)[sp].d(A)[sp].d([m5C])[sp].d(A)[sp].[moe](G)p.[moe](A)p.[moe](A)[sp].[moe](T)}$$$$ (last 3' nucleoside missing)”, the 3 h FOB score worked out at 5 score 0-7.

Regarding “RNA1{[moe](T)[sp].[moe](T)p.[moe](A)p.[moe](T)p.[moe](A)p.d(G)[sp].d(G)[sp].d(G)[sp].d(T)[sp].d(G)[sp].d(G)[sp].d(T)[sp].d(T)[sp].d(G)[sp].d(G)[sp].[moe](T)p.[moe](T)p.[moe]([m5C])[sp].[moe](A)}$$$$ (last 3' nucleoside missing)”, the 3 h FOB score was determined as 7 score 0-7.

“RNA1{[moe](G)[sp].[moe](A)p.[moe](T)p.[moe](T)p.[moe](T)p.d(T)[sp].d(A)[sp].d(T)[sp].d(T)[sp].d(G)[sp].d(G)[sp].d(T)[sp].d([m5C])[sp].d(A)[sp].d(T)[sp].[moe]([m5C])p.[moe](T)p.[moe]([m5C])[sp].[moe](G)}$$$$ (last 3' nucleoside missing)” returned a 3 h FOB score of 6.8 score 0-7.

Substance “RNA1{[moe](G)[sp].[moe](G)p.[moe](A)p.[moe]([m5C])p.[moe](A)p.d(G)[sp].d([m5C])[sp].d(T)[sp].d(G)[sp].d(T)[sp].d(G)[sp].d(T)[sp].d(G)[sp].d(G)[sp].d(A)[sp].[moe](G)p.[moe](G)p.[moe](G)[sp].[moe](A)}$$$$ (last 3' nucleoside missing)” displayed a 3 h FOB score of 5.5 score 0-7.

The substance “RNA1{[moe](G)[sp].[moe](T)p.[moe]([m5C])p.[moe](A)p.[moe](T)p.d([m5C])[sp].d(T)[sp].d([m5C])[sp].d(G)[sp].d(G)[sp].d(G)[sp].d(T)[sp].d(A)[sp].d(T)[sp].d(A)[sp].[moe](T)p.[moe](A)p.[moe](A)[sp].[moe](A)}$$$$ (last 3' nucleoside missing)” returned a 3 h FOB score of 5.5 score 0-7.
